Reference: ChEMBL document CHEMBL4507259 (2021)

Experiments:
[1] = target: Serine/threonine-protein kinase MRCK beta (Homo sapiens) (UniProt Q9Y5S2); conditions: Compound concentration 1000.0 nM
[2] = target: Ribosomal protein S6 kinase alpha-4 (Homo sapiens) (UniProt O75676); conditions: Compound concentration 1000.0 nM
[3] = target: Wee1-like protein kinase (Homo sapiens) (UniProt P30291); conditions: Compound concentration 1000.0 nM
[4] = target: Ribosomal protein S6 kinase alpha-2 (Homo sapiens) (UniProt Q15349); conditions: Compound concentration 1000.0 nM
Ribosomal protein S6 kinase alpha-2 (Homo sapiens), sequence (Q15349 whole entry, canonical isoform): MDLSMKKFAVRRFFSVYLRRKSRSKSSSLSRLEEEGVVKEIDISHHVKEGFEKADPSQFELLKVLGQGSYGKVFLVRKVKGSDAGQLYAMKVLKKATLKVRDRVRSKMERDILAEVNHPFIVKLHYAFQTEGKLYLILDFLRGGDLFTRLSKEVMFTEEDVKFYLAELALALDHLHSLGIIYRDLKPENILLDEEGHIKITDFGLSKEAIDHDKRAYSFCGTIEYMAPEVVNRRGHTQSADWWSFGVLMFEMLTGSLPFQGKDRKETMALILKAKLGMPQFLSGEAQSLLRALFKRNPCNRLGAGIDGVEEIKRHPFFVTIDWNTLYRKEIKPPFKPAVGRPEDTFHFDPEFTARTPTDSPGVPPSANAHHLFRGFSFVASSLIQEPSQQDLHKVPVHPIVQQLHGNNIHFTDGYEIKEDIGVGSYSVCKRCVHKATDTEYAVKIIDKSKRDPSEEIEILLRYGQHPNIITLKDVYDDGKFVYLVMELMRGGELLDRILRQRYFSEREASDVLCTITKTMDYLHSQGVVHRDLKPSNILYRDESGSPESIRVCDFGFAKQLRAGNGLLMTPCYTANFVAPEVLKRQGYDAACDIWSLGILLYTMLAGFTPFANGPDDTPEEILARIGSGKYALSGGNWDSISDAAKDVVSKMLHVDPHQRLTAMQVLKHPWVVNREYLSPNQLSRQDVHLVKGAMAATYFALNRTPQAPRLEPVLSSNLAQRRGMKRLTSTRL

[5] = tested on: Phosphatidylinositol 4,5-bisphosphate 3-kinase catalytic subunit alpha isoform (Homo sapiens), P42336 [E542K]; conditions: Compound concentration 1000.0 nM
[6] = target: Ephrin type-B receptor 1 (Homo sapiens) (UniProt P54762); conditions: Compound concentration 1000.0 nM
[7] = target: Ribosomal protein S6 kinase alpha-3 (Homo sapiens) (UniProt P51812); conditions: Compound concentration 1000.0 nM
[8] = target: NUAK family SNF1-like kinase 1 (Homo sapiens) (UniProt O60285); conditions: Compound concentration 1000.0 nM
[9] = target: RAC-gamma serine/threonine-protein kinase (Homo sapiens) (UniProt Q9Y243); conditions: Compound concentration 1000.0 nM
[10] = target: Discoidin domain-containing receptor 2 (Homo sapiens) (UniProt Q16832); conditions: Compound concentration 1000.0 nM
Discoidin domain-containing receptor 2 (Homo sapiens), sequence (Q16832 whole entry, the tested form may be a part): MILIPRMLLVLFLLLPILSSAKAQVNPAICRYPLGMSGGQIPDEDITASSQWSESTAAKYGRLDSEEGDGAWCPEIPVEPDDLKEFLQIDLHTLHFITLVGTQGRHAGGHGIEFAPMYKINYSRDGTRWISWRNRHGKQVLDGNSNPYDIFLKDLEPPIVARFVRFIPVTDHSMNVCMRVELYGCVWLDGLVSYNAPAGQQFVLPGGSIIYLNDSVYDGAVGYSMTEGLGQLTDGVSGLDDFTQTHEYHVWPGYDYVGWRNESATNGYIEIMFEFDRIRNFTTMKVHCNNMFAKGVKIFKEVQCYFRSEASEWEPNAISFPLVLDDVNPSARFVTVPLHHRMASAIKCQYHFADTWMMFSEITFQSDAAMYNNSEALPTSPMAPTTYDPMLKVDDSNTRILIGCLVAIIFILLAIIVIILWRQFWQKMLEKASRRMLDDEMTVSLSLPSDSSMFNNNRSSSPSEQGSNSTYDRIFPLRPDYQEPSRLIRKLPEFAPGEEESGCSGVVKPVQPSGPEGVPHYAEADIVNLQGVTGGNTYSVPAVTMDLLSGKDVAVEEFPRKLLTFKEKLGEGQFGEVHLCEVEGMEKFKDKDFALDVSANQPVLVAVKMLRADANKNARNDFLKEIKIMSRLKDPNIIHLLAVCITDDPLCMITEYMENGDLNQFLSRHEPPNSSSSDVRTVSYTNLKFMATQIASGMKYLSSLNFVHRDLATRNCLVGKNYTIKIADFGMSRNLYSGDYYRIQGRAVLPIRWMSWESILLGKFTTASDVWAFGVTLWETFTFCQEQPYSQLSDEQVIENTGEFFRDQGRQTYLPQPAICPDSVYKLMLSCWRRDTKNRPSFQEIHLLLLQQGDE

[11] = target: Interleukin-1 receptor-associated kinase 3 (Homo sapiens) (UniProt Q9Y616); conditions: Compound concentration 1000.0 nM
[12] = target: Cyclin-dependent kinase 7 (Homo sapiens) (UniProt P50613); conditions: Compound concentration 1000.0 nM
[13] = target: Testis-specific serine/threonine-protein kinase 3 (Homo sapiens) (UniProt Q96PN8); conditions: Compound concentration 1000.0 nM
Testis-specific serine/threonine-protein kinase 3 (Homo sapiens), sequence (Q96PN8 whole entry): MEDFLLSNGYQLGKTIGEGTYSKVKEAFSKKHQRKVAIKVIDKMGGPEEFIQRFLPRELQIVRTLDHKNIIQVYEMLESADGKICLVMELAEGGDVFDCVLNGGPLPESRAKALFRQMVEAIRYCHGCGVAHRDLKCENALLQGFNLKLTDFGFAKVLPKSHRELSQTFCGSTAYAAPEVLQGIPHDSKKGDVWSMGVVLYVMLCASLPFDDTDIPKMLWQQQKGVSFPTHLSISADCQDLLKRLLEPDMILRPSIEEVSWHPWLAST

[14] = target: Serine/threonine-protein kinase VRK2 (Homo sapiens) (UniProt Q86Y07); conditions: Compound concentration 1000.0 nM
[15] = target: RAC-beta serine/threonine-protein kinase (Homo sapiens) (UniProt P31751); conditions: Compound concentration 1000.0 nM
[16] = target: Wee1-like protein kinase 2 (Homo sapiens) (UniProt P0C1S8); conditions: Compound concentration 1000.0 nM
[17] = target: MAP kinase-interacting serine/threonine-protein kinase 2 (Homo sapiens) (UniProt Q9HBH9); conditions: Compound concentration 1000.0 nM
[18] = target: MAP kinase-activated protein kinase 5 (Homo sapiens) (UniProt Q8IW41); conditions: Compound concentration 1000.0 nM
[19] = target: Serine/threonine-protein kinase 3 (Homo sapiens) (UniProt Q13188); conditions: Compound concentration 1000.0 nM
[20] = target: Phosphatidylinositol 4-phosphate 5-kinase type-1 gamma (Homo sapiens) (UniProt O60331); conditions: Compound concentration 1000.0 nM
[21] = target: Serine/threonine-protein kinase/endoribonuclease IRE1 (Homo sapiens) (UniProt O75460); conditions: Compound concentration 1000.0 nM
[22] = target: Receptor-interacting serine/threonine-protein kinase 2 (Homo sapiens) (UniProt O43353); conditions: Compound concentration 1000.0 nM
[23] = target: Alpha-2C adrenergic receptor (Homo sapiens) (UniProt P18825); conditions: Compound concentration 10.0 uM
[24] = target: Serine/threonine-protein kinase WNK2 (Homo sapiens) (UniProt Q9Y3S1); conditions: Compound concentration 1000.0 nM
[25] = target: Serine/threonine-protein kinase 35 (Homo sapiens) (UniProt Q8TDR2); conditions: Compound concentration 1000.0 nM
[26] = target: AP2-associated protein kinase 1 (Homo sapiens) (UniProt Q2M2I8); conditions: Compound concentration 1000.0 nM
[27] = target: Casein kinase II subunit alpha' (Homo sapiens) (UniProt P19784); conditions: Compound concentration 1000.0 nM
[28] = target: Tyrosine-protein kinase BTK (Homo sapiens) (UniProt Q06187); conditions: Compound concentration 1000.0 nM
[29] = target: Interleukin-1 receptor-associated kinase 4 (Homo sapiens) (UniProt Q9NWZ3); conditions: Compound concentration 1000.0 nM
[30] = target: LIM domain kinase 1 (Homo sapiens) (UniProt P53667); conditions: Compound concentration 1000.0 nM
[31] = target: Calcium/calmodulin-dependent protein kinase kinase 1 (Homo sapiens) (UniProt Q8N5S9); conditions: Compound concentration 1000.0 nM
Calcium/calmodulin-dependent protein kinase kinase 1 (Homo sapiens), sequence (Q8N5S9 whole entry, looked up): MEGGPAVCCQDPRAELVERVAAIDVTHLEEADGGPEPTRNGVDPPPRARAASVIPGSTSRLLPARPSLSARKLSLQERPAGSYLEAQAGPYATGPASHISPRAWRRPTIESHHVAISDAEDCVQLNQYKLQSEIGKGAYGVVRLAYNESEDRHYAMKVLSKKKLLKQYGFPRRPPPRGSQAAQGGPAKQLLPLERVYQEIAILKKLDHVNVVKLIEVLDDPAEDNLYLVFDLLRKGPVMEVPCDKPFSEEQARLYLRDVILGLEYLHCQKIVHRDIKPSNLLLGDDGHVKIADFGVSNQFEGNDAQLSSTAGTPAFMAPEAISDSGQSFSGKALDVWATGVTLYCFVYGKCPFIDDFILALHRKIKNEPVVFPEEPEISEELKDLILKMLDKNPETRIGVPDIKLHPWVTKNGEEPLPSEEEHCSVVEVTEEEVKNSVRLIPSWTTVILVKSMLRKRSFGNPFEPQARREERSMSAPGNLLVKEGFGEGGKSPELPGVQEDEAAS

[32] = target: D(2) dopamine receptor (Homo sapiens) (UniProt P14416); conditions: Compound concentration 10.0 uM
D(2) dopamine receptor (Homo sapiens), sequence (P14416 whole entry): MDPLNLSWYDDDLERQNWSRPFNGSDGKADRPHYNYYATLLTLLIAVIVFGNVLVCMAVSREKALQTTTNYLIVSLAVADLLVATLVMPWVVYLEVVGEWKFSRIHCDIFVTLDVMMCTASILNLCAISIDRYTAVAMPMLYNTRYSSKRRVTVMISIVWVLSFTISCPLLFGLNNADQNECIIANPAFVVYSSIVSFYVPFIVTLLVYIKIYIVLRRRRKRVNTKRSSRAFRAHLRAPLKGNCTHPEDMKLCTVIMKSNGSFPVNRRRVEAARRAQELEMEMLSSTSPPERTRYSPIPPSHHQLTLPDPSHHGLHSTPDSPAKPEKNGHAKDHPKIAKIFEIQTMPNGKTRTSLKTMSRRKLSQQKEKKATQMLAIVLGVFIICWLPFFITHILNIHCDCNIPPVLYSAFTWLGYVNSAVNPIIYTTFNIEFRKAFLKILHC

[33] = target: 5-hydroxytryptamine receptor 6 (Homo sapiens) (UniProt P50406); conditions: Compound concentration 10.0 uM
[34] = target: cAMP-dependent protein kinase catalytic subunit alpha (Homo sapiens) (UniProt P17612); conditions: Compound concentration 1000.0 nM
[35] = target: Mitogen-activated protein kinase kinase kinase 6 (Homo sapiens) (UniProt O95382); conditions: Compound concentration 1000.0 nM
[36] = target: Phosphatidylinositol 3-kinase catalytic subunit type 3 (Homo sapiens) (UniProt Q8NEB9); conditions: Compound concentration 1000.0 nM
Phosphatidylinositol 3-kinase catalytic subunit type 3 (Homo sapiens), sequence (Q8NEB9 whole entry): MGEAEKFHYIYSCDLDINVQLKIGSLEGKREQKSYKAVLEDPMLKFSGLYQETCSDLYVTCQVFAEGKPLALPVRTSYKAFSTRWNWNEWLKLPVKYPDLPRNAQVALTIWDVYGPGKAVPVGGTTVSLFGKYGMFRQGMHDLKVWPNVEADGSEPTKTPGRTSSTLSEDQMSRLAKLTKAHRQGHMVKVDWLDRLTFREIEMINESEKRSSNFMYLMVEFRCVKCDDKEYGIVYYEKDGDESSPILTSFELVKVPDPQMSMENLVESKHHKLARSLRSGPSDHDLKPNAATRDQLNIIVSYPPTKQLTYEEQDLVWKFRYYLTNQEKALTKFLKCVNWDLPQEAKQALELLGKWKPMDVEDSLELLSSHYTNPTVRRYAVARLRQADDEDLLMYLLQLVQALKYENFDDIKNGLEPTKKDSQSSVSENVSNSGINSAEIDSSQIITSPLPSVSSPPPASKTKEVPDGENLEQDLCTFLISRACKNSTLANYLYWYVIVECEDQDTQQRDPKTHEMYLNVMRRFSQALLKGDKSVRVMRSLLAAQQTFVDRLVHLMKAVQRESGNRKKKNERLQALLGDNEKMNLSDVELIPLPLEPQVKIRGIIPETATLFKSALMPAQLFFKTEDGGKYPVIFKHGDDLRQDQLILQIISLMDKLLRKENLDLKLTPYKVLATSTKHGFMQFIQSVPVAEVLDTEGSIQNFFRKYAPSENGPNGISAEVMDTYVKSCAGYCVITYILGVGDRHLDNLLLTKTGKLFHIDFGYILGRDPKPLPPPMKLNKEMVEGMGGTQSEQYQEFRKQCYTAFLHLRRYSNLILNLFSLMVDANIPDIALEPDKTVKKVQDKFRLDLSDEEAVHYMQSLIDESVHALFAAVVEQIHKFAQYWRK

[37] = target: Substance-P receptor (Homo sapiens) (UniProt P25103); assay: NK1 (h) CEREP ligand profiling; conditions: filed as agonist, Compound concentration 10.0 uM
Substance-P receptor (Homo sapiens), sequence (P25103 whole entry): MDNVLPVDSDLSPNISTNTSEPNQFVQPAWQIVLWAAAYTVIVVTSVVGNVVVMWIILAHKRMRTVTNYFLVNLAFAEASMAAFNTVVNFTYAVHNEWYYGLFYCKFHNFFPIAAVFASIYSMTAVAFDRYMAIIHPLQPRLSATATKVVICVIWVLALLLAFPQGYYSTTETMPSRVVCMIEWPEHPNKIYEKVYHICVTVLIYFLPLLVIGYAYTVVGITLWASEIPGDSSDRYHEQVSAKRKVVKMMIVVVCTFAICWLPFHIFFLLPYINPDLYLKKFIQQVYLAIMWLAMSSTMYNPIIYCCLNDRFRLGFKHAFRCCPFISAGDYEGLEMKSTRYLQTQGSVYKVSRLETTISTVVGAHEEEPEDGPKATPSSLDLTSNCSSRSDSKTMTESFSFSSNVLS

[38] = target: 1-phosphatidylinositol 3-phosphate 5-kinase (Homo sapiens) (UniProt Q9Y2I7); conditions: Compound concentration 1000.0 nM
[39] = target: Serine/threonine-protein kinase PAK 3 (Homo sapiens) (UniProt O75914); conditions: Compound concentration 1000.0 nM
[40] = target: Calcium/calmodulin-dependent protein kinase type 1G (Homo sapiens) (UniProt Q96NX5); conditions: Compound concentration 1000.0 nM
[41] = target: Mitogen-activated protein kinase kinase kinase 3 (Homo sapiens) (UniProt Q99759); conditions: Compound concentration 1000.0 nM
[42] = target: Dual specificity protein kinase CLK3 (Homo sapiens) (UniProt P49761); conditions: Compound concentration 1000.0 nM
[43] = target: Serine/threonine-protein kinase 38 (Homo sapiens) (UniProt Q15208); conditions: Compound concentration 1000.0 nM
[44] = target: Inhibitor of nuclear factor kappa-B kinase subunit epsilon (Homo sapiens) (UniProt Q14164); conditions: Compound concentration 1000.0 nM
[45] = target: TRAF2 and NCK-interacting protein kinase (Homo sapiens) (UniProt Q9UKE5); conditions: Compound concentration 1000.0 nM

Ribosomal protein S6 kinase alpha-4 (Homo sapiens), sequence (O75676 whole entry, looked up): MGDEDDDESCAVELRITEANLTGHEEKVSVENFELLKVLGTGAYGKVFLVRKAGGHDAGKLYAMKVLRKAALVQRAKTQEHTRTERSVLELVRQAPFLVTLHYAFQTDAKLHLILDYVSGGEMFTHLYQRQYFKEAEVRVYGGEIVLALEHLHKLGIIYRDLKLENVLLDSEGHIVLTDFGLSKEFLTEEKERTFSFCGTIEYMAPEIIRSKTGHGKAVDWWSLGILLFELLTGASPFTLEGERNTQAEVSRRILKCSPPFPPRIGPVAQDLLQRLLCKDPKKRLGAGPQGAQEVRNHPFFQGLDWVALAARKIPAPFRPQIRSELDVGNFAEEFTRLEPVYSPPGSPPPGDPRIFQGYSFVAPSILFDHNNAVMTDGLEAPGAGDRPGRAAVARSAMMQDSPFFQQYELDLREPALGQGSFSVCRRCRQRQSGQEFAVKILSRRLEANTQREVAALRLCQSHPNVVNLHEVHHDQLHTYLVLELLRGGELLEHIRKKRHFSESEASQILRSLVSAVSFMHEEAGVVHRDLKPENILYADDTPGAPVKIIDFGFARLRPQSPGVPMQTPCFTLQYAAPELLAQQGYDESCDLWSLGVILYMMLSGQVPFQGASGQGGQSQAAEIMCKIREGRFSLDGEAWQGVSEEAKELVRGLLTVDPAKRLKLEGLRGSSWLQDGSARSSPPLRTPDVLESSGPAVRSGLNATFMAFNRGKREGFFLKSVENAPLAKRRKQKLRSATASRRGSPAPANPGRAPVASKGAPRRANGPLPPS

CNC(=O)Nc1ccc2c(c1)CC[C@@]21OC(=O)N(CC(=O)N(Cc2ccc(F)cc2)[C@@H](C)C(F)(F)F)C1=O [A-485]
inactive: residual activity [1] 73% | residual activity [2] 72% | residual activity [3] 80% | residual activity [4] 90% | residual activity [5] 76% | residual activity [6] 97% | residual activity [7] 88% | residual activity [8] 94% | residual activity [9] 100% | residual activity [10] 75% | residual activity [11] 95% | residual activity [12] 78% | residual activity [13] 88% | residual activity [14] 91% | residual activity [15] 80% | residual activity [16] 75% | residual activity [17] 82% | residual activity [18] 82% | residual activity [19] 100% | residual activity [20] 100% | residual activity [21] 56% | residual activity [22] 100% | inhibition [23] 20.7% | residual activity [24] 100% | residual activity [25] 89% | residual activity [26] 100% | residual activity [27] 100% | residual activity [28] 87% | residual activity [29] 78% | residual activity [30] 91% | residual activity [31] 70% | inhibition [32] 15.5% | inhibition [33] 32.6% | residual activity [34] 100% | residual activity [35] 86% | residual activity [36] 88% | inhibition [37] 21% | residual activity [38] 58% | residual activity [39] 91% | residual activity [40] 100% | residual activity [41] 86% | residual activity [42] 83% | residual activity [43] 100% | residual activity [44] 51% | residual activity [45] 93%

CNC(=O)Nc1ccc2c(c1)[C@@]1(CC2)OC(=O)N(CC(=O)N(Cc2ccc(F)cc2)[C@@H](C)C(F)(F)F)C1=O [A-486]
inactive: residual activity [1] 80% | residual activity [2] 88% | residual activity [3] 100% | residual activity [4] 100% | residual activity [5] 69% | residual activity [6] 100% | residual activity [7] 75% | residual activity [8] 88% | residual activity [9] 94% | residual activity [10] 100% | residual activity [11] 100% | residual activity [12] 76% | residual activity [13] 100% | residual activity [14] 97% | residual activity [15] 99% | residual activity [16] 100% | residual activity [17] 76% | residual activity [18] 86% | residual activity [19] 97% | residual activity [20] 100% | residual activity [21] 100% | residual activity [22] 83% | inhibition [23] 8.88% | residual activity [24] 59% | residual activity [25] 85% | residual activity [26] 100% | residual activity [27] 90% | residual activity [28] 97% | residual activity [29] 94% | residual activity [30] 87% | residual activity [31] 100% | inhibition [32] -8.75% | inhibition [33] 24.1% | residual activity [34] 99% | residual activity [35] 82% | residual activity [36] 96% | inhibition [37] 12% | residual activity [38] 72% | residual activity [39] 91% | residual activity [40] 100% | residual activity [41] 75% | residual activity [42] 84% | residual activity [43] 79% | residual activity [44] 75% | residual activity [45] 87%
